Measurements taken from patent US20220267271A1, “WNT ACTIVATORS AND METHODS OF USE” (MAYO FOUNDATION FOR MEDICAL EDUCATION AND RESEARCH, priority 2019, published 2022).
≈ marks a conversion by molar mass, not a printed value. Read-outs that look alike come from different tables or passages of the source. Values belong to the compound of their own block, whether it stands above or below them.

Assays:
Wnt/β-catenin signaling [1] = experiment: Luciferase reporter assay (Super8XTOPFlash) for Wnt/β-catenin signaling in HEK293 cells; assay type: cell-based; conditions: 24 h; for EC50: Homo sapiens, Wnt3A plasmid-transfected HEK293 cells, 30-30,000 nM, mean and SD of 3-7 independent experiments; for Wnt reporter activity / activation of Wnt/β-catenin signaling: HEK293 cells
Experimental: (§1) (A) structures of niciosamide and CI-994; (B) HEK293 cells were transfected with Super8XTOPFlash and β galactosidase vectors along with Wnt3A or control vector. After 24 hours incubation, cells were treated with CI-994 at the indicated concentration for 24 hr. The luciferase activity was then measured and normalized to the activity of the β-galactosidase. (C) HT1080 cells stably transduced LRP6 with HA tag were treated with niciosamide and CI-994 at the indicated concentrations for 24 h. The levels of HA-LRP6 were examined by Western blot with anti-HA antibody. (D) Western blots showing the depletion of LRP6 after 2 days of transiently transfection of 50 nM LRP6 siRNA in HEK293 cells. ON-TARGETplus double-stranded siRNA oligomers against human LRP6 and non-specific scrambled siRNA control (Stealth RNAi™ siRNA Negative Control, Med GC) were purchased from Thermo Scientific. siRNA LRP6-1, siRNA LRP6-2 and control siRNA were Thermo Scientific catalog numbers J-003845-09, J-003845-11 and 12935300, respectively. (E) HEK293 cells were transfected with LRP6 siRNAs, and after 8 h incubation were further transfected with Super8XTOPFlash construct and β galactosidase-expressing vector. After 24 h incubation, the cells were treated with CI-994 (16 μM) for 24 h. The luciferase activity was then measured and normalized to β-galactosidase activity. All the values are the average of triplicate determinations with the SD values indicated by error bars. **P<0.01 versus corresponding control value.
HEK293 cells were transfected with SuperXTOPFlash and β-galactosidase vectors along with Wnt3A or control vector. After 24 h incubation, cells were treated with 1015 or 1039 at the indicated concentrations for 24 h. The luciferase activity was then measured and normalized to the activity of the β-galactosidase. All the values are the average of triplicate determinations with the SD values indicated by error bars. This experiment is representative of at least three such experiments performed with similar data.
Luciferase reporter assay for Wnt/β-catenin signaling: HEK293 cells were plated into 24-well plates. After overnight culture, the cells were transiently transfected with the Super8XTOPFlash luciferase construct and β-galactosidase-expressing vector along with or without Wnt3A plasmid. After 24 h incubation, cells were treated with each individual compound at the indicated concentrations for 24 h. Cells were then lysed and both luciferase and β-galactosidase activities were determined. The luciferase activity was normalized to the β-galactosidase activity.
HEK293 cells were plated into 24-well plates. After overnight culture, the cells were transiently transfected with the Super8XTOPFlash luciferase construct and β-galactosidase-expressing vector along with the Wnt3A plasmid. After 24 h incubation, the cells were treated with each individual compound at 30-30,000 nM in triplication for 24 h. The cells were then lysed, and luciferase and β-galactosidase activities were determined with the luciferase assay system (Promega, Cat. #E1501) and β-galactosidase assay system (Promega, Cat. #E2000), respectively. The luciferase activity was normalized to the s-galactosidase activity, and the EC50 values were calculated by use of GraphPad software, and shown in the below table. All the EC50 values (mean and SD) are from 3-7 independent experiments.

LRP6 = experiment: Wnt reporter assay in HEK293 cells after LRP6 siRNA knockdown; assay type: cell-based, human; conditions: CI-994 16 μM, 1011, 1015, 1023 1 μM, 24 h
Experimental: as §1
(A) HT1080 cells stably transduced with human LRP6 with HA tag were treated with niciosamide (1 μM) and other compounds as noted (1 μM) for 24 hr. The levels of HA-LRP6 were examined by Western blots with anti-HA antibody. All samples were also probed with anti-actin antibody to verify equal loading. This experiment is a representative of two such experiments performed with similar data. (B) N2a cells were treated with 1015 and 1011 at the indicated concentrations for 24 h. The expression levels of LRP6, β-catenin and actin were examined by Western blotting. This experiment is a representative of three such experiments performed with similar data. (C) HEK293 cells were transfected with LRP6 siRNAs, and after 8 h incubation were further transfected with Super8XTOPFlash construct and β galactosidase-expressing vector. ON-TARGETplus double-stranded siRNA oligomers against human LRP6 and non-specific scrambled siRNA control (Stealth RNAi™ siRNA Negative Control, Med GC) were purchased from Thermo Scientific. siRNA LRP6-1, siRNA LRP6-2 and control siRNA were Thermo Scientific catalog numbers J-003845-09, J-003845-11 and 12935300, respectively. […] The luciferase activity was then measured and normalized to β-galactosidase activity. […]

Wnt/β-catenin signaling [2] = conditions: cancer cells; cited from earlier work
C2C12 cells = experiment: Alkaline phosphatase (ALP) activity assay, osteoblastic differentiation of C2C12 cells; assay type: cell-based; conditions: dose-response 0.1-12.8 μM, 72 h
Experimental: C2C12 cells were seeded into 24-well plates (1×10^5 cells/well). After culture overnight, the cells were treated with a Wnt activator at 0.8 μM (A) and 1.6 μM (B) for 72 h. The ALP activity was measured by ALP assay kit from AnaSpec (AS-72146). All the values are the average of triple determinations with the s.d. indicated by error bars. *P<0.05, **P<0.01 versus corresponding control value. This experiment is a representation of two such experiments performed with similar data.
C2C12 cells were seeded into 24-well plates (1×10^5 cells/well). After culture overnight, the cells were treated with the noted compounds at 0, 0.1, 0.2, 0.4, 0.8, 1.6, 3.2, 6.4 and 12.8 μM for 72 hours. The ALP activity was measured by ALP assay kit from AnaSpec (AS-72146). All the values are the average of triple determinations with the s.d. indicated by error bars.
Alkaline phosphatase (ALP) activity assay: C2C12 cells in 24-well plates were treated with each individual compound at the indicated concentrations for 72 h. Cells were then harvested for assay of ALP activity with the ALP assay kit (AnaSpec) according to the manufacturers specifications.

[3] = Aqueous (kinetic) solubility assay in PBS pH 7.4; assay type: physicochemical; conditions: phosphate-buffered saline, 25 °C, pH 7.4, aqueous buffer, kinetic from dmso stock, PBS pH 7.4, 2% DMSO, two hours, assay range 2-200 μM
Experimental: Aqueous solubility assay: Using a 10 mM stock solution of the compound in 100% DMSO, dilutions were prepared to a theoretical concentration of 200 μM in duplicates in phosphate-buffered saline pH 7.4 with 2% final DMSO. In parallel, compound dilutions in 50% acetonitrile/PBS were prepared to theoretical concentrations of 0 μM (blank), 50 μM, 100 μM and 200 μM with 2% final DMSO to generate calibration curves. The experimental compound dilutions in PBS were further allowed to equilibrate at 25° C. on a thermostatic orbital shaker for two hours and then centrifuged at 14000 rpm, 5 min and filtered through HTS filter plates using a vacuum manifold. The supernatants of test compounds were diluted 2-fold with acetonitrile contained 4% DMSO before measuring. Ondansetron was used as reference compound to control proper assay performance. 200 μl of samples were transferred to 96-well plate and measured in 200-550 nm range with 5 nm step. The effective range of this assay is approximately 2-200 μM and the compounds returning values close to the upper limit of the range may have higher actual solubility (e.g. 5 ? deoxy-5-fluorouddine).

[4] = Metabolic stability in mouse liver microsomes; assay type: in vitro ADME; conditions: 2 μM, five time points over 40 min, NADPH
Experimental: Metabolic stability of several compounds (1009, 1011, 1015, 1020, and 1056) and 2 reference compounds (propranolol and imipramine) were determined in mouse liver microsomes at five time points over 40 min using HPLC-MS. Metabolic stability is defined as the percentage of parent compound lost over time in the presence of a metabolically active test system.
Metabolic stability in mouse liver microsomes: Mouse hepatic microsomes were isolated from pooled, perfused livers of Balb/c male mice according to the standard protocol. The batch of microsomes was tested for quality control using Imipramine, Propranolol and Verapamil as reference compounds. Microsomal incubations were carried out in 96-well plates in 5 aliquots of 40 μL each (one for each time point). Liver microsomal incubation medium contained PBS (100 mM, pH 7.4), MgCl2 (3.3 mM), NADPH (3 mM), glucose-6-phosphate (5.3 mM), glucose-6-phosphate dehydrogenase (0.67 units/ml) with 0.42 mg of liver microsomal protein per ml. Control incubations were performed replacing the NADPH-cofactor system with PBS. Test compound (2 μM, final solvent concentration 1.6%) was incubated with microsomes at 37° C., shaking at 100 rpm. Incubations were performed in duplicates. Five time points over 40 minutes had been analyzed. The reactions were stopped by adding 12 volumes of 90% acetonitrile-water to incubation aliquots, followed by protein sedimentation by centrifuging at 5500 rpm for 3 minutes. […]. Supernatants were analyzed using the HPLC system coupled with tandem mass spectrometer.
The elimination constant (kel), half-life (t1/2) and intrinsic clearance (Clint) were determined in plot of […] versus time, using linear regression analysis: […]

[5] = read-out: PBS solubility, pH 7.4, μM Exp1
[6] = read-out: PBS solubility, pH 7.4, μM Exp2
[7] = read-out: PBS solubility, pH 7.4, μM Mean

SMILES: Nc1ccccc1NC(=O)c1ccc(NC(=O)CCN2CCC[C@@H]3CCCC[C@@H]32)cn1 (racemic) [Compound 1059]
EC50 (Wnt/β-catenin signaling [1]): 494 ± 147 nM

SMILES: Nc1ccccc1NC(=O)c1ccc(C(=O)NCC2CCN2C2CCCC2)cc1 (stereo not shown) [Compound 1021]
EC50 (Wnt/β-catenin signaling [1]): 1380 ± 643 nM

SMILES: CC1CCCC(C)N1CCC(=O)Nc1ccc(C(=O)Nc2ccccc2N)nc1 (stereo not shown) [Compound 1023]
EC50 (Wnt/β-catenin signaling [1]): 496 ± 195 nM | effect of knockdown of LRP6 expression on the compound's effect on Wnt/β-catenin signaling (LRP6): significantly attenuated

SMILES: O=C(CCCCCN1C(=O)c2cccc3cccc(c23)C1=O)NO [Scriptaid, reference compound]
Wnt reporter activity / activation of Wnt/β-catenin signaling (Wnt/β-catenin signaling [1]): unable to activate

SMILES: Cc1cc(Cl)ccc1OCCCC(=O)NO [Droxinostat, reference compound]
Wnt reporter activity / activation of Wnt/β-catenin signaling (Wnt/β-catenin signaling [1]): unable to activate

SMILES: O=C(Nc1ccc([N+](=O)[O-])cc1Cl)c1cc(Cl)ccc1O [Niclosamide, 5-chloro-N-[2-chloro-4-nitrophenyl]-2-hydroxy benzamide]
Wnt/β-catenin signaling (by inducing LRP6 degradation) (Wnt/β-catenin signaling [2]): suppresses

SMILES: Cn1cc(CNCC2CCN(c3ncc(C(=O)NO)cn3)CC2)c2ccccc21 [JNJ-26481585, reference compound]
Wnt reporter activity / activation of Wnt/β-catenin signaling (Wnt/β-catenin signaling [1]): unable to activate

SMILES: Cc1nccn1CC1CCc2c(c3ccccc3n2C)C1=O (stereo not shown) [Ondansetron, reference compound]
solubility at 2 h [3, 5]: 109 µM (≈ 32 µg/mL) | solubility at 2 h [3, 6]: 113 µM (≈ 33.2 µg/mL) | solubility at 2 h [3, 7]: 111 µM (≈ 32.6 µg/mL)

The next lines start with results.

EC50 (Wnt/β-catenin signaling [1]): 596 ± 79 nM
SMILES: COc1ccc(CN2CCC2CNC(=O)c2ccc(C(=O)Nc3ccccc3N)nc2)cc1 (stereo not shown) [Compound 1041]

EC50 (Wnt/β-catenin signaling [1]): 526 ± 268 nM
SMILES: Nc1ccccc1NC(=O)c1ccc(C(=O)NCC2CCCN2CC2CCCCC2)cn1 (stereo not shown) [Compound 1038]

EC50 (Wnt/β-catenin signaling [1]): 519 ± 24 nM
SMILES: CCN1CCCC1CNC(=O)c1ccc(C(=O)Nc2ccccc2N)nc1 (stereo not shown) [Compound 1028]

EC50 (Wnt/β-catenin signaling [1]): 298 ± 25 nM
SMILES: Nc1ccccc1NC(=O)c1ccc(C(=O)NCC2CCCN2CCc2ccccc2)cn1 (stereo not shown) [Compound 1039]
Wnt reporter activity / activation of Wnt/β-catenin signaling (Wnt/β-catenin signaling [1]): activate

EC50 (Wnt/β-catenin signaling [1]): 532 ± 38 nM
SMILES: Nc1ccccc1NC(=O)c1ccc(C(=O)NCC2CCCN2C2CCCCC2)cn1 (stereo not shown) [Compound 1046]

EC50 (Wnt/β-catenin signaling [1]): 444 ± 36 nM
SMILES: Nc1ccccc1NC(=O)c1ccc(C(=O)NCCN2CCC3(CCCCC3)CC2)cn1 [Compound 1013]

EC50 (Wnt/β-catenin signaling [1]): 483 ± 40 nM
SMILES: COCCN1CCCC1CNC(=O)c1ccc(C(=O)Nc2ccccc2N)nc1 (stereo not shown) [Compound 1030]

EC50 (Wnt/β-catenin signaling [1]): 507 ± 128 nM
SMILES: Nc1ccccc1NC(=O)c1ccc(C(=O)NCC2CCN2C2CCCCC2)cn1 (stereo not shown) [Compound 1045]

EC50 (Wnt/β-catenin signaling [1]): 601 ± 101 nM | solubility at 2 h [3, 5]: 197 µM (≈ 83 µg/mL) | solubility at 2 h [3, 6]: 191 µM (≈ 80.5 µg/mL) | solubility at 2 h [3, 7]: 194 µM (≈ 81.8 µg/mL) | stability in mouse hepatic microsomal system [4]: moderate stability
SMILES: Nc1ccccc1NC(=O)c1ccc(C(=O)NCCN2CCCC3CCCCC32)cn1 (stereo not shown) [Compound 1009]
potency in inducing C2C12 osteoblastic differentiation compared with CI-994 (C2C12 cells): more potent than CI-994

stability in mouse hepatic microsomal system [4]: good stability
SMILES: CC(=O)Nc1ccc(C(=O)Nc2ccccc2N)nc1 [Compound 1056]

EC50 (Wnt/β-catenin signaling [1]): 408 ± 77 nM
SMILES: Nc1ccccc1NC(=O)c1ccc(C(=O)NCC2CCN2C2CCCCCC2)cn1 (stereo not shown) [Compound 1050]
